Entries after “also recorded” stand apart in the source; their conditions may differ. Like-named read-outs stand apart in the source and are kept apart here.
Columns and labels:
human Nav1.7 = target: T1, human Nav1.7 (Homo sapiens, UniProt Q15858); assay: whole-cell patch clamp, human Nav1.7 transiently expressed in HEK 293 cells; assay type: cell-based
T1 construct: expressed in transfected cells; host or cells: HEK293 cells, transient transfection with Lipofectamine 2000
Excerpt: Figure 2 Inhibitory effect of synthetic μ-TRTX-Hhn1b on Nav1.7 expressed on HEK 293 cells. […] (B) The inhibition of μ-TRTX-Hhn1b on Nav1.7 was dose-dependent. […] Data are plotted as a fraction of the maximum conductance. The voltage-dependence of steady-state inactivation was estimated using a standard double-pulse protocol, in which a 20-ms depolarizing test potential of 0 mV followed a 500-ms prepulse at potentials that ranged from −130 to −10 mV with a 10-mV increment. Cells were held at −100 mV.
A human Nav1.7 channel plasmid (accession No. NM_002977) and a plasmid for green ﬂuorescent protein were transiently transfected into human embryonic kidney 293 (HEK293) cells using Lipofectamine 2000 (Invitrogen, Carlsbad, CA, USA) according to the manufacturer’s instructions. HEK293 cells were grown under standard tissue culture conditions (5% CO2; 37 °C) in DMEM supplemented with 10% FBS. The β1 subunit was cotransfected with the Nav1.7 channel to increase the current density. Cells with green ﬂuorescence were selected for whole-cell patch-clamp recording at 36–72 h after transfection. Patch-clamp experiments were performed at room temperature. Suction pipettes (2.0–3.0 MΩ) were made from borosilicate glass capillary tubes using a two-step vertical micropipette puller. The pipette solution contained (in mM): CsCl 145, MgCl2∙6H2O 4, HEPES 10, EGTA 10, glucose 10, ATP 2 (pH 7.2). The external solution contained (in mM): NaCl 145, KCl 2.5, CaCl2 1.5, MgCl2.6H2O 1.2, HEPES 10, glucose 10 (pH 7.4). Experimental data were collected and analyzed using the program Pulse/Pulsefit 8.0 (HEKA Electronics, Pfalz, Germany). Macroscopic sodium currents were filtered at 5 kHz and digitized at 20 kHz with an EPC-9 patch-clamp amplifier (HEKA Electronics, Pfalz, Germany). Series resistance was kept near 5 MΩ and compensated to 65%–70%; linear capacitative and leakage currents were digitally subtracted using the P/4 protocol.

[1] = system: acetic acid-induced abdominal constriction responses in mice; assay type: in vivo, mouse (ICR); conditions: 15 min before acetic acid, 30 min count, n = 6
Method: The abdominal constriction responses induced by intraperitoneal (i.p.) injection of 0.2 mL acetic acid (0.8%), including contraction of the abdominal muscle and stretching of the hind limbs, were performed according to procedures described by Collier et al.. Mice (male, weighing 20–25 g) were pre-treated with the test samples dissolved in saline by intraperitoneal (i.p.) injection for 15 min prior to acetic acid injection. Control animals received the same volume of vehicle (saline: 0.9% sodium chloride solution). After the challenge, mice were individually placed into open polyvinyl cages (30 cm × 40 cm × 30 cm), and the abdominal constriction responses were counted cumulatively during 30 min, which was represented as the sum of constriction (S). The inhibition of pain responses was calculated by the equation as follows: inhibition of pain responses % = (Ssaline − Sdrug)/Ssaline per animal. One hundred percent corresponds to complete reversal of pain, equivalent to the non-injury value, and 0% corresponds to the value from the saline group.

[2] = system: formalin-induced pain behaviors in rats; assay: formalin-induced inflammatory rat model; assay type: in vivo, rat (Sprague-Dawley); conditions: for pain score over the 40 min period: mean ± SEM, saline 569.2 ± 43.5 s
Method: Acute and chronic nociceptive responses were measured using the rat paw formalin test as descried by Dubission and modified by Malmberg. Adult Sprague-Dawley rats (male, weighing 180–220 g) were used for this behavioral test. During the test, each rat was placed into open polyvinyl cages (30 cm × 40 cm × 30 cm) and at least 30 min before administration of the toxin. All agents were administered 30 min prior to s.c. intraplantar formalin injection. A volume of 50 μL formalin (5%) solution was used as previously described and injected into the plantar surface of one hind paw. Lifting, favoring, licking, shaking and flinching of the injected paw were recorded as nociceptive responses. The total time of the nociceptive response was measured every 5 min and […] (mean ± SEM). Recording of nociceptive behavior commenced immediately after formalin injection and was continued for 40 min.

[3] = system: SNI-induced mechanical allodynia in rats; assay type: in vivo, rat (Sprague-Dawley); conditions: for withdrawal threshold to von Frey hair: 200 μg/kg i.p., mean ± SEM, n = 6
Method: The spared nerve injury was produced as described previously by Decosterd and Woolf. The rats (male, weighing 180–220 g) were anesthetized with ketamine (300 mg/kg) and placed on a pad. Aseptic techniques were used, and the sciatic nerve and its three terminal branches, including the sural, common peroneal and tibial nerves, were exposed, ligated and transected. Muscle and skin were closed with 4-0 polydiaxone and wound clips. Sham controls involved the exposure of the sciatic nerve and its branches without any lesion.
Allodynia was assessed 3 days after SNI surgery, and only rats that developed allodynia, as defined by a significant decrease in their mechanical threshold using von Frey filament, were used. Tactile allodynia was assessed with calibrated von Frey filaments (Stoelting, Wood Dale, IL, USA) using an up-down paradigm. Mechanical sensitivity was determined by applying a series of twenty calibrated von Frey filaments (0.008–2 g, 2–60 g) to the plantar aspect of the left hind paw. […] A response was indicated by brisk withdrawal of the hind paw.

mice and rats = assay: observation of death and abnormal behaviors in the pain tests; assay type: in vivo
[4] = system: Nav1.2, Nav1.3, Nav1.4, Nav1.5, Nav1.7; conditions: reference not given; cited from earlier work
[5] = system: neuronal TTX-S VGSCs in rat dorsal root ganglion (DRG) cells; conditions: cited from earlier work
Excerpt: μ-TRTX-Hhn1b (HNTX-IV) is a 35-residue peptide from tarantula Ornithoctonus hainana (Haplopelma hainanum) venom. The amino acid sequence is […]. The peptide amidated at its C-terminal has a high proportion of basic residues and is crosslinked by three disulfide bonds. […] Therefore, the rotarod latency test was used to access the motor side effects of μ-TRTX-Hhn1b in rats.

T1 sequence (Q15858 other isoform, or with tags, fused parts or gaps): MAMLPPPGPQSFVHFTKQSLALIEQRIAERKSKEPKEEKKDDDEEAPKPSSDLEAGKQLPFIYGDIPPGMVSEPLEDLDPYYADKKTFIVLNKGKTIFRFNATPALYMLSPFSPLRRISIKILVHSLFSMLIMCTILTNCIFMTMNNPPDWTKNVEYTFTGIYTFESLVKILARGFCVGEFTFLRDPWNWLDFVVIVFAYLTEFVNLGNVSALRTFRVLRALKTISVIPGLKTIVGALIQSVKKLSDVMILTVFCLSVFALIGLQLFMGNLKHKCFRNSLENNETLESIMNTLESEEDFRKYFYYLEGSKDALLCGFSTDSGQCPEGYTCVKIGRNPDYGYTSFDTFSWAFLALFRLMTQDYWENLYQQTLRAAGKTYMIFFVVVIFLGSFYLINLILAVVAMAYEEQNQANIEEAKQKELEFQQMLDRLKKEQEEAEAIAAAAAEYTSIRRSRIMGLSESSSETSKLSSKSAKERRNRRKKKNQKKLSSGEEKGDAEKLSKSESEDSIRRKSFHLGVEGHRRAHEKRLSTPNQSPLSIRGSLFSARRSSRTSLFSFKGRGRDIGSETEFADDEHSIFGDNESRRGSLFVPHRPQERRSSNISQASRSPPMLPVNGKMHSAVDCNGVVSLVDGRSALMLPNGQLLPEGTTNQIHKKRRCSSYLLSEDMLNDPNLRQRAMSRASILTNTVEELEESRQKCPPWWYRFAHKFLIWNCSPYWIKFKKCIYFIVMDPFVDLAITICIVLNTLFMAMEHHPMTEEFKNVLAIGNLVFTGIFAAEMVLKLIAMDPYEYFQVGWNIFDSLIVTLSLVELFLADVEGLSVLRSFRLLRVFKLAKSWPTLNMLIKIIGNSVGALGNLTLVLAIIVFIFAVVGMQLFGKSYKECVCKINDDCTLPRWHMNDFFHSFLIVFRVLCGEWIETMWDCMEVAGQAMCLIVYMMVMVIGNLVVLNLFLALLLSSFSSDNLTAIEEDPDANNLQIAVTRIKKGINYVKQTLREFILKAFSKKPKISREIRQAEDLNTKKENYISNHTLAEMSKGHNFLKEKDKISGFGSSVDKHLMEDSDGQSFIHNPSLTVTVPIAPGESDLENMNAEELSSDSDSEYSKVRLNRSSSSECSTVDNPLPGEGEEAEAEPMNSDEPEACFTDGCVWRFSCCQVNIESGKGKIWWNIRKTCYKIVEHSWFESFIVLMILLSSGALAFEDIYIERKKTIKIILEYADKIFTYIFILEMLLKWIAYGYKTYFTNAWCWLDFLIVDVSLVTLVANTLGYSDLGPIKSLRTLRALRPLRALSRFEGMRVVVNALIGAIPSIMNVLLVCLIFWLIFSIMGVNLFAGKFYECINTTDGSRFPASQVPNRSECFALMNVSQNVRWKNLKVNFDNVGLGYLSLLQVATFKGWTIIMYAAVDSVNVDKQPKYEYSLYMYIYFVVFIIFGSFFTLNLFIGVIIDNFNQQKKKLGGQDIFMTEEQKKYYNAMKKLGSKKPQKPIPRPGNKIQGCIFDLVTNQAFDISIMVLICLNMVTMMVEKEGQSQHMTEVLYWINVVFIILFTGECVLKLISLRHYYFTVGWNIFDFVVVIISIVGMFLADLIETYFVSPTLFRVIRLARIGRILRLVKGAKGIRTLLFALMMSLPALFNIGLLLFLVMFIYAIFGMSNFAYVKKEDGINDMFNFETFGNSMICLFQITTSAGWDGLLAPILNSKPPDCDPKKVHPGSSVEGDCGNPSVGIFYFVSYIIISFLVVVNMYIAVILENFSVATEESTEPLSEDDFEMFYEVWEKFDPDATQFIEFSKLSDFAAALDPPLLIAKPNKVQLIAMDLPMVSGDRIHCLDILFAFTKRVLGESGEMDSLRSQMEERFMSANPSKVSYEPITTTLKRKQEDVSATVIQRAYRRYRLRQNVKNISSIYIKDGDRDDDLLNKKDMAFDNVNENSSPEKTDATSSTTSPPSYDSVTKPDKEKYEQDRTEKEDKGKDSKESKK
T1 sequence (Q07699 19-218, further chain): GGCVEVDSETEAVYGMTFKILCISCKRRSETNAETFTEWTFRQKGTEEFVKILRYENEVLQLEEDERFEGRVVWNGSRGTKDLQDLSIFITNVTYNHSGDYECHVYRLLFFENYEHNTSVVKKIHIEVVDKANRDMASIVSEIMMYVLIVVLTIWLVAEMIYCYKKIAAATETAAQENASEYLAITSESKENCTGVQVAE

With `CC[C@H](C)[C@H](NC(=O)[C@H](CCC(=O)O)NC(=O)[C@H](Cc1ccc(O)cc1)NC(=O)[C@H](CCCCN)NC(=O)[C@@H]1CSSC[C@@H]2NC(=O)[C@H](CCC(N)=O)NC(=O)[C@H](CC(=O)O)NC(=O)[C@H](CC(N)=O)NC(=O)[C@H](CO)NC(=O)[C@@H]3CCCN3C(=O)[C@H](CC(N)=O)NC(=O)[C@@H]3CSSC[C@H](NC(=O)[C@H](C(C)C)NC(=O)[C@H](CC(C)C)NC(=O)[C@H](CC(N)=O)NC(=O)[C@H](CO)NC(=O)[C@H](CO)NC(=O)[C@H](CCCCN)NC(=O)[C@H](CSSC[C@H](NC(=O)[C@@H](N)CCC(=O)O)C(=O)N[C@@H](CC(C)C)C(=O)NCC(=O)N[C@@H](Cc4ccccc4)C(=O)NCC(=O)N[C@@H](CCCCN)C(=O)NCC(=O)N3)NC2=O)C(=O)N[C@@H](CO)C(=O)N[C@@H](CCCNC(=N)N)C(=O)N[C@@H](CCCCN)C(=O)N[C@@H](Cc2c[nH]cn2)C(=O)N[C@@H](CCCNC(=N)N)C(=O)N[C@@H](Cc2c[nH]c3ccccc23)C(=O)N1)C(N)=O` [μ-TRTX-Hhn1b] the “effect on activation and inactivation of Nav1.7” value (human Nav1.7; 50 nM synthetic peptide) was “did not significantly alter the activation (C) and steady-state inactivation (D) of Nav1.7; also recorded: inhibited the peak current of Nav1.7 without significant alteration of the activation and inactivation kinetics of Nav1.7”, the “half-activation voltage of Nav1.7” value (human Nav1.7; 50 nM synthetic peptide, Boltzmann fit) was −23.0 ± 0.4 mV and the “half-inactivation voltage of Nav1.7” value (human Nav1.7; 50 nM synthetic peptide, steady-state inactivation, Boltzmann fit) was −47.1 ± 0.3 mV. The “τon, time-dependent inhibition of Nav1.7” value (human Nav1.7; 100 nM synthetic peptide, HEK 293 cells) was 20.5 ± 0.3 s, the “inhibitory effect of synthetic peptide compared with native toxin” value (human Nav1.7; human Nav1.7 in HEK 293 cells) was “same inhibitory effect on human Nav1.7 current transiently expressed in HEK 293 cells as the native toxin” and the IC50 (human Nav1.7; synthetic peptide, human Nav1.7 + β1 subunit in HEK 293 cells, whole-cell patch clamp, room temperature, 50-ms depolarization from −80 mV to −10 mV, mean ± S.E., five to eight cells, read-out: IC50, inhibition of Nav1.7 current) was about 21 nM. For the same compound, the “inhibition of pain responses (abdominal constriction)” value ([1]; 25.0 μg/kg i.p., p < 0.05) was 25.2%, the “inhibition of pain responses (abdominal constriction)” value ([1]; 100 μg/kg i.p., p < 0.01) was 55.6% and the “pain score over the 40 min period” value ([2]; 50 µg/kg i.p., n = 6, p < 0.05) was 458.5 ± 59.9 s. The “pain score over the 40 min period” value ([2]; 100 µg/kg i.p., n = 6, p < 0.01) was 346.0 ± 46.2 s, the “pain score over the 40 min period” value ([2]; 200 µg/kg i.p., n = 6, p < 0.01) was 199.8 ± 32.6 s and the “antinociceptive activity compared with morphine” value ([2]; 200 µg/kg peptide vs 100 µg/kg morphine, i.p.) was “antinociceptive activity similar to 100 µg/kg of morphine”. The “effect on pain responses, early phase” value ([2]; early phase (0–5 min), 50, 100 or 200 µg/kg i.p.) was “not in the early phases; also recorded: little effect”, the “suppression of pain behaviors, late phase” value ([2]; late phase (15–30 min), 50, 100 or 200 µg/kg i.p.) was “dose-dependent suppression of pain behaviors; also recorded: significantly inhibited” and the “reversal of SNI-induced mechanical allodynia” value ([3]; 50 µg/kg, 100 µg/kg or 200 µg/kg i.p., n = 6 per group) was “depressed in a dose-dependent manner; also recorded: significantly reversed SNI-induced allodynia”. For the same compound, the “withdrawal threshold to von Frey hair” value ([3]; 60 min after injection, saline 1.4 ± 0.4 g, p < 0.01) was 8.8 ± 0.9 g, the “withdrawal threshold to von Frey hair” value ([3]; 100 min after injection, p < 0.05) was 4.0 ± 0.6 g and the “duration of antinociceptive effect” value ([3]; i.p.) was “more than 100 min”. The “duration of antinociceptive effect relative to mexiletine” value ([3]; i.p.) was “about two-fold longer than that of mexiletine”, the side effects (mice and rats; 0.2 mg/kg) was “inactivity and paralysis” and the abnormal behaviors (mice and rats; highest dose, some mice and rats) was “inactivity and paralysis, were observed in some mice and rats”. For the same compound, the animal death (mice and rats; in the three pain tests / all tests) was “no animal death was observed; also recorded: no animal death occurred in all tests”, the “sensitivity of Nav1.7 relative to other channels” value [4] was “Nav1.7 is the most sensitive to μ-TRTX-Hhn1b” and the “inhibition of other TTX-S VGSCs” value ([5]; at a high concentration, reference not given) was “also inhibits other TTX-S VGSCs in rat DRG cells at a high concentration”. For the same compound, the “inhibition of neuronal TTX-S VGSCs” value [5] was “specifically inhibits the neuronal TTX-S VGSCs in rat dorsal root ganglion (DRG) cells”.

Reference: PMC4147587, “Synthesis and Analgesic Effects of μ-TRTX-Hhn1b on Models of Inflammatory and Neuropathic Pain” (Toxins, 2014)
